One test has as its target T1, Human M4 (Homo sapiens, UniProt P08173).
T1 construct: expressed in transfected cells; host or cells: CHO-K1 (ATCC), stably co-expressing chimeric G protein Gqi5
T1 sequence (P08173 1-479): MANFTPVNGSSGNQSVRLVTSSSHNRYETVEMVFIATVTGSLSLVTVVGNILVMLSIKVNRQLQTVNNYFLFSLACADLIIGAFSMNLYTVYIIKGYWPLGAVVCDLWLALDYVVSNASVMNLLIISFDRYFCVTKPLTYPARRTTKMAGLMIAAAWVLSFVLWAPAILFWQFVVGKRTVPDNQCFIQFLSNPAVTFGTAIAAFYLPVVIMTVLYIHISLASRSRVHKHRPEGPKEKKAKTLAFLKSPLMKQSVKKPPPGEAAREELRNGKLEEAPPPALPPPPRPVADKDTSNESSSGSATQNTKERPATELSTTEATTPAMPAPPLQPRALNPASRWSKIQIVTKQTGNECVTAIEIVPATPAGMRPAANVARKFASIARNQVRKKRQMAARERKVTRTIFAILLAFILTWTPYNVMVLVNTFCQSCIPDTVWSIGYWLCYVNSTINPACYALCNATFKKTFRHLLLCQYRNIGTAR
Put plainly: mAChR M4 cell-based functional assay (calcium flux, antagonist mode vs EC80 acetylcholine), human M4/Gqi5/CHO-K1 cells. The following applies: for remaining activity at 30 µM: CHO-K1, % ACh maximum at 30 μM, human M4, read-out: Human M4 Emin (%); for IC50: decrease of response elicited by EC80 acetylcholine, human M4/Gqi5 CHO-K1 cells. In outline: (§1)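 CHO-K1 cells stably expressing human or rat M4 with Gqi5, Fluo-4 loaded; calcium measured by fluorescence ratio on FDSS. Compound added, then EC20 acetylcholine at 143 s and EC80 at 268 s; IC50 from decrease of EC80 response, four-parameter logistic fit.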
(Calcium flux is commonly read through the fluorescence of an indicator in the cells.)

In the next test the target is T2, Rat M4 (Rattus norvegicus, UniProt P08485).
T2 construct: expressed in transfected cells; host or cells: CHO-K1 (ATCC), stably co-expressing chimeric G protein Gqi5
T2 sequence (P08485 1-478): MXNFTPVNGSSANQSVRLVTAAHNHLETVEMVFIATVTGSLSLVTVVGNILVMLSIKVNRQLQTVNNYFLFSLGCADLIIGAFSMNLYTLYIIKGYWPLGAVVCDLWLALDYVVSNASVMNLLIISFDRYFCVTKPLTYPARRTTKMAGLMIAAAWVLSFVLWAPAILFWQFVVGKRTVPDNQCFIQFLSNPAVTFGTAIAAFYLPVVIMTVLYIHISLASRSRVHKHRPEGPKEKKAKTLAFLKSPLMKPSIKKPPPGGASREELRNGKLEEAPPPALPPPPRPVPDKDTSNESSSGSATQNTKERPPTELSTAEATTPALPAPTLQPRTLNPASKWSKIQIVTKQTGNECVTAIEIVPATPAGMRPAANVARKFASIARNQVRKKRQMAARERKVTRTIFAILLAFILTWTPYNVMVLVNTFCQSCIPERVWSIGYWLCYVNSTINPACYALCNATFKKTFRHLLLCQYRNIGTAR
Briefly: mAChR M4 cell-based functional assay (calcium flux, antagonist mode vs EC80 acetylcholine), rat M4/Gqi5/CHO-K1 cells. The settings on record: for remaining activity at 30 µM: CHO-K1, % ACh maximum at 30 μM, rat M4, read-out: Rat M4 Emin (%); for IC50: decrease of response elicited by EC80 acetylcholine, rat M4/Gqi5 CHO-K1 cells. Summed up: as §1

For test [1], the system named is haloperidol-induced catalepsy. The settings on record: cited from earlier work.
The next test has as its system locomotor activity. The settings on record: M4 knockout mice, but not the other four mAChR subtypes (M1-3,5); cited from earlier work.

Structures are written as SMILES. Where two headings read alike, the source gives them in different places.

Results on 10 compounds are retold here after patent publication US20230183218A1, “CONDENSED SUBSTITUTED HYDROPYRROLES AS ANTAGONISTS OF THE MUSCARINIC ACETYLCHOLINE RECEPTOR M4” (Vanderbilt University, priority 2020, published 2023).

The term IC50 denotes the concentration that inhibits the measured activity by half. Regarding `C=CCN1C(=O)C(C)(C)c2cc(N[C@H]3C[C@@H]4CN(CCC(C)(C)C)C[C@@H]4C3)nnc21` [compound 71, 7-allyl-3-(((3aR,5s,6aS)-2-(3,3-dimethylbutyl)octahydrocyclopenta[c]pyrrol-5-yl)amino)-5,5-dimethyl-5,7-dihydro-6H-pyrrolo[2,3-c]pyridazin-6-one], the remaining activity at 30 µM on Human M4 was determined as 3%; on Rat M4 it was 5%. The IC50 worked out at 12.4 nM on Human M4 and 369 nM at Rat M4.

With `CCCN1C(=O)C(C)(C)c2cc(N[C@H]3C[C@@H]4CN(CCC(C)(C)C)C[C@@H]4C3)nnc21` [compound 72, 3-(((3aR,5s,6aS)-2-(3,3-dimethylbutyl)octahydrocyclopenta[c]pyrrol-5-yl)amino)-5,5-dimethyl-7-propyl-5,7-dihydro-6H-pyrrolo[2,3-c]pyridazin-6-one], on Human M4, the remaining activity at 30 µM amounted to 4% and the IC50 was determined as 10.5 nM. At Rat M4, the remaining activity at 30 µM was found to be 4% and the concentration for half-maximal inhibition (IC50) was 217 nM.

As to `CC(C)(O)CN1C[C@H]2C[C@H](Nc3ccc(-c4cc(F)ccc4Cl)nn3)C[C@H]2C1` [compound 73, 1-((3aR,5s,6aS)-5-((6-(2-Chloro-5-fluorophenyl)pyridazin-3-yl)amino)hexahydrocyclopenta[c]pyrrol-2(1H)-yl)-2-methylpropan-2-ol], on Human M4, the remaining activity at 30 µM stood at 3% and the IC50 was determined as 13.5 nM. Further, on Rat M4, the remaining activity at 30 µM was determined as 8% and the IC50 came to 1360 nM.

As to `Fc1ccc(Cl)c(-c2ccc(N[C@H]3C[C@@H]4CN(C5CCCC5)C[C@@H]4C3)nn2)c1` [compound 74, (3aR,5s,6aS)-N-(6-(2-chloro-5-fluorophenyl)pyridazin-3-yl)-2-cyclopentyloctahydrocyclopenta[c]pyrrol-5-amine], on Human M4, the remaining activity at 30 µM is 2% and the IC50 came to 27.3 nM. Further, at Rat M4, the remaining activity at 30 µM was 4% and the IC50 amounted to 933 nM.

Consider `Fc1ccc(Cl)c(-c2ccc(N[C@H]3C[C@@H]4CN(C5CCCCCC5)C[C@@H]4C3)nn2)c1` [compound 75, (3aR,5s,6aS)-N-(6-(2-chloro-5-fluorophenyl)pyridazin-3-yl)-2-cycloheptyloctahydrocyclopenta[c]pyrrol-5-amine], for which, at Human M4, the remaining activity at 30 µM was found to be 2% and the 50% inhibitory concentration (IC50) was 3.2 nM. At Rat M4, the remaining activity at 30 µM was found to be 3% and the IC50 was 41.8 nM.

Take `Fc1ccc(Cl)c(-c2ccc(N[C@H]3C[C@@H]4CN(C5Cc6ccccc6C5)C[C@@H]4C3)nn2)c1` [compound 76, (3aR,5s,6aS)-N-(6-(2-chloro-5-fluorophenyl)pyridazin-3-yl)-2-(2,3-dihydro-1H-inden-2-yl)octahydrocyclopenta[c]pyrrol-5-amine]: at Human M4, the remaining activity at 30 µM stood at 3% and the IC50 is 189 nM. Further, on Rat M4, the remaining activity at 30 µM was found to be 4% and the IC50 stood at 350 nM.

In the case of `Fc1ccc(Cl)c(-c2ccc(N[C@H]3C[C@@H]4CN(C5CCC6(CCCCC6)CC5)C[C@@H]4C3)nn2)c1` [compound 77, (3aR,5s,6aS)-N-(6-(2-chloro-5-fluorophenyl)pyridazin-3-yl)-2-(spiro[5.5]undecan-3-yl)octahydrocyclopenta[c]pyrrol-5-amine], at Human M4, the remaining activity at 30 µM was found to be 3% and the half-inhibitory concentration (IC50) came to 25.7 nM. Besides, at Rat M4, the remaining activity at 30 µM amounted to 7% and the half-maximal inhibitory concentration (IC50) worked out at 387 nM.

As for `Fc1ccc(Cl)c(-c2ccc(N[C@H]3C[C@@H]4CN(C5CCC6(CCOCC6)CC5)C[C@@H]4C3)nn2)c1` [compound 78, (3aR,5s,6aS)-N-(6-(2-chloro-5-fluorophenyl)pyridazin-3-yl)-2-(3-oxaspiro[5.5]undecan-9-yl)octahydrocyclopenta[c]pyrrol-5-amine], the remaining activity at 30 µM at Human M4 and on Rat M4 was 3% in each case. Further, the IC50 on Human M4 turned out to be 2.3 nM; on Rat M4, 102 nM.

Consider `O=S1(=O)CCC(N2C[C@H]3C[C@H](Nc4ccc(-c5cc(F)ccc5Cl)nn4)C[C@H]3C2)CC1` [compound 79, 4-((3aR,5s,6aS)-5-((6-(2-chloro-5-fluorophenyl)pyridazin-3-yl)amino)hexahydrocyclopenta[c]pyrrol-2(1H)-yl)tetrahydro-2H-thiopyran 1,1-dioxide], for which, at Human M4, the remaining activity at 30 µM was found to be 8% and the IC50 came out at 1750 nM. At Rat M4, the remaining activity at 30 µM came out at 42% and the IC50 is over 10000 nM.

In the case of `CN1[C@@H]2C[C@@H](OC(=O)[C@H](CO)c3ccccc3)C[C@H]1[C@@H]1O[C@@H]12` [scopolamine], the “reversal of haloperidol-induced catalepsy” value in test [1] (M4KO mice) is recorded as “ineffective in reducing catalepsy”; in test [1] (WT mice), “completely reversed”. In the test on locomotor activity, the locomotor-activating effects entry is “dramatically reduced”.
